Measurements reported in patent US9493466B2, “Treatment of cancer with TOR kinase inhibitors” (Signal Pharmaceuticals, LLC, priority 2011, dated 2016).
Where two headings read alike, the source gives them in different places.

Key:
[1] = test system: U87MG-Luc cells; assay: U87MG intracranial glioblastoma model; format: in vivo, Nude mice; conditions: up to 6 weeks
Protocol: U87MG Intracranial Glioblastoma Model (Compound 1). An intracranial glioblastoma study was conducted with U87MG cells transfected with luciferase (U87-MG-Luc). Nude mice were inoculated intracranially with U87MG-Luc cells into the brain. Following inoculation of animals, the tumors were allowed to grow for 7 days. On day 7 following tumor cell inoculation, the mice were imaged using Xenogen imaging system. The mice having tumors with an average flux ranging between 6.29×10^7 and 1.59×10^8 photons/sec were pooled together and randomized into various treatment groups. Compound 1 was formulated in 0.5% CMC and 0.25% Tween 80 in water (as a suspension). The animals were orally administered vehicle (CMC-Tween) or Compound 1 once daily (QD) for up to 6 weeks. Doses of Compound 1 ranged between 2.5 and 20 mg/kg. The positive control Temozolomide (10 mg/kg, QD) was administered via intra peritoneal (IP) route. Temozolomide was formulated in 5% N-methylpyrrolidone, 45% PEG400 and 50% saline. The animals were imaged for bioluminescence once a week using Xenogen imaging system and monitored for survival. Statistical analysis was performed using a log-rank test between Compound-treated and vehicle-treated control groups.
U87MG Intracranial Glioblastoma Model (Compound 2). […] The animals were imaged for bioluminescence once a week using Xenogen imaging system and monitored for survival. […]

[2] = test system: OPM2; assay: Cell proliferation and viability assay for MM lines; format: cell-based; conditions: OPM2, 5 days, 7AAD FACS
Protocol: (§1) Cell Proliferation and Viability Assay for MM Lines. Prior to use, cells were washed and maintained in medium for 5 days. Cells were seeded out at a density of 0.3×10^6 cells/mL in a 12-well plate and treated with Compound 1 or Compound 2 for 5 days. 7AAD detection fluorescence-activated cell sorting (FACS) flow cytometry was used in the analysis.

[3] = test system: MM1.S; assay: as above; format: cell-based; conditions: 5 days, 7AAD FACS
Protocol: as §1

[4] = test system: U266; assay: as above; format: cell-based; conditions: U266, 5 days, 7AAD FACS
Protocol: as §1

[5] = test system: KMS34; assay: as above; format: cell-based; conditions: KMS34, 5 days, 7AAD FACS
Protocol: as §1

[6] = test system: H929; assay: as above; format: cell-based; conditions: H929, 5 days, 7AAD FACS
Protocol: as §1

[7] = test system: CAG; assay: as above; format: cell-based; conditions: 5 days, 7AAD FACS
Protocol: as §1

[8] = test system: LP-1; assay: as above; format: cell-based; conditions: LP-1, 5 days, 7AAD FACS
Protocol: as §1

[9] = test system: RPMI; assay: as above; format: cell-based; conditions: 5 days, 7AAD FACS
Protocol: as §1

[10] = test system: DF15; assay: as above; format: cell-based; conditions: DF15, 5 days, 7AAD FACS
Protocol: as §1

[11] = test system: NHL cell lines; assay: Apoptosis assay for NHL lines (panel statement); format: cell-based; conditions: multiple NHL cell lines in vitro; FIG. 2
Protocol: (§2) Apoptosis Assay for NHL Lines. Prior to testing, cells were grown and expanded in culture flasks to provide sufficient amounts of starting material. Cells were then diluted to their desired densities and added directly to compound-spotted 384-well plates. Cells were allowed to grow for 24 hours in 5% CO2 at 37° C. The apoptotic response was assessed by quantifying the activities of caspase 3 and caspase 7 (Caspase 3/7-Glo) in treated cells and control cells at the 24-hour time point. All data was normalized and represented as a value relative to the DMSO-treated cells. Results were then expressed as CalX, which is the minimum compound concentration required to double the levels of caspase 3/7 relative to those of the DMSO-treated cells during their treatment period.

[12] = test system: SU-DHL-8; assay: Apoptosis assay for NHL lines (Caspase 3/7-Glo); format: cell-based; conditions: SU-DHL-8, NHL DLBCL, 24 hours, n = 1
Protocol: as §2

[13] = test system: REC-1; assay: Apoptosis assay for NHL lines (Caspase 3/7-Glo); format: cell-based; conditions: REC-1, NHL MCL, 24 hours, n = 1
Protocol: as §2

[14] = test system: Toledo; assay: Apoptosis assay for NHL lines (Caspase 3/7-Glo); format: cell-based; conditions: NHL DLBCL, 24 hours, n = 1
Protocol: as §2

[15] = test system: U-2940; assay: Apoptosis assay for NHL lines (Caspase 3/7-Glo); format: cell-based; conditions: U-2940, NHL DLBCL, 24 hours, n = 1
Protocol: as §2

[16] = test system: SU-DHL-6; assay: Apoptosis assay for NHL lines (Caspase 3/7-Glo); format: cell-based; conditions: SU-DHL-6, NHL DLBCL, 24 hours, n = 1
Protocol: as §2

[17] = test system: KARPAS-299; assay: Apoptosis assay for NHL lines (Caspase 3/7-Glo); format: cell-based; conditions: KARPAS-299, ALCL T-cell, 24 hours, n = 1
Protocol: as §2

[18] = test system: THP-1; assay: Apoptosis assay for NHL lines (Caspase 3/7-Glo); format: cell-based; conditions: THP-1, Leukemia M-AML, 24 hours, n = 1
Protocol: as §2

[19] = test system: JEKO-1; assay: Apoptosis assay for NHL lines (Caspase 3/7-Glo); format: cell-based; conditions: JEKO-1, NHL MCL, 24 hours, n = 1
Protocol: as §2

[20] = Homo sapiens, 120 h, read-out: IC50, Viability
[21] = 120 h, read-out: IC50, Proliferation
[22] = 120 h, read-out: IC50, Viability

In the case of CCN1C(=O)CNc2ncc(-c3ccc(-c4nc[nH]n4)nc3C)nc21 [Compound 2, 1-ethyl-7-(2-methyl-6-(1H-1,2,4-triazol-3-yl)pyridin-3-yl)-3,4-dihydropyrazino[2,3-b]pyrazin-2(1H)-one], the survival ([1]; 0.5 to 5 mg/kg QD oral, FIG. 16) is reported as “significantly prolonged the life”, the IC50 ([2]; Homo sapiens, OPM-2, 120 h, read-out: IC50, Proliferation) is reported as 370 nM and the IC50 ([2]; Homo sapiens, OPM-2, 120 h, read-out: IC50, Viability) is reported as 510 nM. It also gave an IC50 [3, 20] of 850 nM, an IC50 ([4]; Homo sapiens, U-266, 120 h, read-out: IC50, Proliferation) of 320 nM and an IC50 ([4]; Homo sapiens, U-266, 120 h, read-out: IC50, Viability) of 4290 nM. For the same compound, the IC50 ([5]; KMS-34, 120 h, read-out: IC50, Proliferation) was 70 nM, the IC50 ([5]; KMS-34, 120 h, read-out: IC50, Viability) was 120 nM and the IC50 ([6]; Homo sapiens, NCI-H929, 120 h, read-out: IC50, Proliferation) was 130 nM. The IC50 ([6]; Homo sapiens, NCI-H929, 120 h, read-out: IC50, Viability) was 400 nM, the IC50 [7, 21] was 410 nM and the IC50 [7, 22] was 1500 nM. It also gave an IC50 ([8]; Homo sapiens, 120 h, read-out: IC50, Proliferation) of 160 nM, an IC50 [8, 20] of 830 nM and an IC50 [9, 21] of 150 nM. It also gave an IC50 [9, 22] of 450 nM, an IC50 [10, 21] of 50 nM and an IC50 [10, 22] of 570 nM. The apoptosis induction [11] was “induce apoptosis”.
In the case of CO[C@H]1CC[C@H](N2C(=O)CNc3ncc(-c4ccc(C(C)(C)O)nc4)nc32)CC1 [Compound 1, 7-(6-(2-hydroxypropan-2-yl)pyridin-3-yl)-1-((1r,4r)-4-methoxycyclohexyl)-3,4-dihydropyrazino-[2,3-b]pyrazin-2(1H)-one], the “CalX (minimum concentration to double caspase 3/7)” value (“CalX” below) [12] is reported as 0.07, the “CalX” value [13] is reported as 0.79 and the Apoptotic [14] is reported as “N/Y”. For the same compound, the “CalX” value [14] was 3.48, the “CalX” value [15] was 0.43 and the “CalX” value [16] was 10. The Apoptotic [17] was “N/Y”, the “CalX” value [17] was 9.61 and the Apoptotic [18] was “N/Y”. The “CalX” value [18] was 7.57, the “CalX” value [19] was 0.56 and the survival ([1]; 2.5 to 20 mg/kg QD oral, FIG. 14) was “significantly prolonged the life”. The IC50 ([2]; read-out: IC50, Proliferation) was 330 nM, the IC50 ([2]; read-out: IC50, Viability) was 600 nM and the IC50 ([3]; read-out: IC50, Proliferation) was 440 nM. For the same compound, the IC50 ([3]; read-out: IC50, Viability) was 1010 nM, the IC50 ([4]; read-out: IC50, Proliferation) was 560 nM and the IC50 ([5]; read-out: IC50, Proliferation) was 100 nM. It also gave an IC50 ([5]; read-out: IC50, Viability) of 420 nM, an IC50 ([6]; read-out: IC50, Proliferation) of 190 nM and an IC50 ([6]; read-out: IC50, Viability) of 730 nM. For the same compound, the IC50 ([7]; read-out: IC50, Proliferation) was 800 nM, the IC50 ([7]; read-out: IC50, Viability) was 2600 nM and the IC50 ([8]; read-out: IC50, Proliferation) was 220 nM. The IC50 ([9]; read-out: IC50, Proliferation) was 170 nM, the IC50 ([9]; read-out: IC50, Viability) was 1100 nM and the IC50 ([10]; read-out: IC50, Proliferation) was 100 nM. For the same compound, the IC50 ([10]; read-out: IC50, Viability) was 850 nM and the apoptosis induction [11] was “induce apoptosis”.
